Experimental findings from patent US6417187B2, “1,2,4-triazole based compounds that can be used as insecticides or acaricides and processes” (Dow AgroSciences LLC, priority 2000, dated 2002) are described below.

Common to all, as to assay type: in vivo
Experiment [1] concerns cotton aphid (Aphis gossvpii). Description: Insecticidal test for cotton aphid (squash cotyledon spray). Conditions: for pest or weed control at 50 ppm: 72 h, read-out: CA: activity at 50 ppm against cotton aphid (% Control rating).
Experiment [2] relates to Sweetpotato Whitefly (Bemisia tabacia). Description: Insecticidal test for Sweetpotato Whitefly (cotton plant spray). Conditions: 200 ppm spray on cotton plants, 13 days, reduction of large nymphs; for pest or weed control at 200 ppm: Bemisia, 312 h, read-out: WF: activity at 200 ppm against whitefly (% Control rating).
For experiment [3], the system named is Brown Planthopper (Nilaparvata lugens). Kind of experiment: Insecticidal test for Brown Planthopper (rice seedling roots in test solution).
In experiment [4] the test system is Green Leafhopper (Nephotettix cincticeps). Description: Insecticidal test for Green Leafhopper (rice seedling roots in test solution).
[5] abbreviates: 50 ppm spray on infested squash cotyledons, 3 days, population reduction versus untreated.
Setting [6] is: 10 ppm test solution, rice seedling roots, 3rd instar nymphs, mortality at 6 days.

As for `CCC#Cc1sc(-c2nc(-c3c(F)cccc3Cl)nn2C)c(Cl)c1Cl` [Compound 5], the pest or weed control at 50 ppm in experiment [1] (setting [5]) fell in the range of 80 to 89%. Further, the pest or weed control at 200 ppm in experiment [2] was below 50%. For the same compound, in experiment [3] (setting [6]), the “BPH: activity at 10 ppm against brown planthopper (% Control rating)” value (“BPH: activity at 10 ppm … (% Control rating)” below) is given as “F (less than 50)”. The “GLH: activity at 10 ppm against green leafbopper (% Control rating)” value (“GLH: activity at 10 ppm … (% Control rating)” below) in experiment [4] (setting [6]) is given as “F (less than 50)”.

Regarding `Cc1ccncc1C#Cc1sc(-c2nc(-c3c(F)cccc3Cl)nn2C)c(Cl)c1Cl` [Compound 21], the “CA: activity at 50 ppm against cotton aphid (% Control rating)” value (from here on “CA: activity at 50 ppm … (% Control rating)”) in experiment [1] (setting [5]) is “F (less than 50)”. The “BPH: activity at 10 ppm … (% Control rating)” value in experiment [3] (setting [6]) is “F (less than 50)”.

As to `Cn1nc(-c2c(F)cccc2Cl)nc1-c1sc(C#Cc2cc(Cl)c(OCC(F)(F)F)c(Cl)c2)c(Cl)c1Cl` [Compound 22], in experiment [1] (setting [5]), the “CA: activity at 50 ppm … (% Control rating)” value is on record as “F (less than 50)”. The “WF: activity at 200 ppm against whitefly (% Control rating)” value (from here on “WF: activity … (% Control rating)”) in experiment [2] is given as “D (60-69)”. Further, in experiment [3] (setting [6]), the “BPH: activity at 10 ppm … (% Control rating)” value is listed as “F (less than 50)”. In addition, in experiment [4] (setting [6]), the “GLH: activity at 10 ppm … (% Control rating)” value was “F (less than 50)”.

Consider `Cn1nc(-c2c(F)cccc2Cl)nc1-c1sc(C#Cc2ccccn2)c(Cl)c1Cl` [Compound 33], for which the “CA: activity at 50 ppm … (% Control rating)” value in experiment [1] (setting [5]) is reported as “F (less than 50)”. The “WF: activity … (% Control rating)” value in experiment [2] is on record as “D (60-69)”. For the same compound, the “BPH: activity at 10 ppm … (% Control rating)” value in experiment [3] (setting [6]) is listed as “F (less than 50)”. Also, the “GLH: activity at 10 ppm … (% Control rating)” value in experiment [4] (setting [6]) is given as “F (less than 50)”.

Regarding `C=C(C)C#Cc1sc(-c2nc(-c3c(F)cccc3Cl)nn2C)c(Cl)c1Cl` [Compound 38], in experiment [1] (setting [5]), the “CA: activity at 50 ppm … (% Control rating)” value is “D (60-69)”. In addition, the “WF: activity … (% Control rating)” value in experiment [2] is on record as “F (less than 50)”.

Take `CC=CC#Cc1sc(-c2nc(-c3c(F)cccc3Cl)nn2C)c(Cl)c1Cl` [Compound 39]: the “CA: activity at 50 ppm … (% Control rating)” value in experiment [1] (in vivo) was “B (key: A: 90-100; B: 80-89; C: 70-79; D: 60-69; E: 50-59; F: less than 50; G: inactive)”. In experiment [3] (in vivo), the “BPH: activity at 10 ppm … (% Control rating)” value was “F (key: A: 90-100; B: 80-89; C: 70-79; D: 60-69; E: 50-59; F: less than 50; G: inactive)”. Besides, the “GLH: activity at 10 ppm … (% Control rating)” value in experiment [4] (in vivo) is “F (key: A: 90-100; B: 80-89; C: 70-79; D: 60-69; E: 50-59; F: less than 50; G: inactive)”.

With `Cc1ccnc(C#Cc2sc(-c3nc(-c4c(F)cccc4Cl)nn3C)c(Cl)c2Cl)c1` [Compound 43], the “CA: activity at 50 ppm … (% Control rating)” value in experiment [1] (setting [5]) is “F (less than 50)”. In experiment [2], the “WF: activity … (% Control rating)” value is listed as “F (less than 50)”. The “GLH: activity at 10 ppm … (% Control rating)” value in experiment [4] (setting [6]) is “F (less than 50)”.

Regarding `Cc1cccc(C#Cc2sc(-c3nc(-c4c(F)cccc4Cl)nn3C)c(Cl)c2Cl)n1` [Compound 44], the “CA: activity at 50 ppm … (% Control rating)” value in experiment [1] (setting [5]) is given as “F (less than 50)”. In experiment [2], the “WF: activity … (% Control rating)” value was “F (less than 50)”.

Take `Cc1cccnc1C#Cc1sc(-c2nc(-c3c(F)cccc3Cl)nn2C)c(Cl)c1Cl` [Compound 45]: the “CA: activity at 50 ppm … (% Control rating)” value in experiment [1] (setting [5]) is “F (less than 50)”. Besides, the “WF: activity … (% Control rating)” value in experiment [2] is listed as “F (less than 50)”. Further, the “BPH: activity at 10 ppm … (% Control rating)” value in experiment [3] (setting [6]) was “F (less than 50)”. The “GLH: activity at 10 ppm … (% Control rating)” value in experiment [4] (setting [6]) is recorded as “F (less than 50)”.

Regarding `Cc1cc(C#Cc2sc(-c3nc(-c4c(F)cccc4Cl)nn3C)c(Cl)c2Cl)ccn1` [Compound 57], the “WF: activity … (% Control rating)” value in experiment [2] is on record as “F (less than 50)”. The “GLH: activity at 10 ppm … (% Control rating)” value in experiment [4] (setting [6]) is reported as “F (less than 50)”.

As to `Cc1ccc(C#Cc2sc(-c3nc(-c4c(F)cccc4Cl)nn3C)c(Cl)c2Cl)nc1` [Compound 58], the “CA: activity at 50 ppm … (% Control rating)” value in experiment [1] (setting [5]) was “F (less than 50)”. In addition, the “WF: activity … (% Control rating)” value in experiment [2] is recorded as “F (less than 50)”. Moreover, the “BPH: activity at 10 ppm … (% Control rating)” value in experiment [3] (setting [6]) is given as “F (less than 50)”. Also, the “GLH: activity at 10 ppm … (% Control rating)” value in experiment [4] (setting [6]) was “F (less than 50)”.

`Cn1nc(-c2c(F)cccc2Cl)nc1-c1sc(C#Cc2ccc(Br)cc2OC(F)(F)F)c(Cl)c1Cl` [Compound 59]: the “CA: activity at 50 ppm … (% Control rating)” value in experiment [1] (setting [5]) is recorded as “F (less than 50)”. Moreover, the “WF: activity … (% Control rating)” value in experiment [2] is reported as “F (less than 50)”. The “BPH: activity at 10 ppm … (% Control rating)” value in experiment [3] (setting [6]) is on record as “F (less than 50)”. In addition, in experiment [4] (setting [6]), the “GLH: activity at 10 ppm … (% Control rating)” value is “F (less than 50)”.

`Cn1nc(-c2c(F)cccc2Cl)nc1-c1sc(C#Cc2ccc(Cl)cn2)c(Cl)c1Cl` [Compound 61]: the “CA: activity at 50 ppm … (% Control rating)” value in experiment [1] (setting [5]) is “F (less than 50)”. Moreover, the “WF: activity … (% Control rating)” value in experiment [2] is recorded as “F (less than 50)”. The “BPH: activity at 10 ppm … (% Control rating)” value in experiment [3] (setting [6]) is listed as “F (less than 50)”. In addition, in experiment [4] (setting [6]), the “GLH: activity at 10 ppm … (% Control rating)” value is “F (less than 50)”.

For `Cn1nc(-c2c(F)cccc2Cl)nc1-c1sc(C#Cc2ccc(C(F)(F)F)cn2)c(Cl)c1Cl` [Compound 62], the “CA: activity at 50 ppm … (% Control rating)” value in experiment [1] (setting [5]) is “F (less than 50)”. The “WF: activity … (% Control rating)” value in experiment [2] was “F (less than 50)”. The “BPH: activity at 10 ppm … (% Control rating)” value in experiment [3] (setting [6]) was “F (less than 50)”. Moreover, in experiment [4] (setting [6]), the “GLH: activity at 10 ppm … (% Control rating)” value is recorded as “F (less than 50)”.

For the compound `CCOc1ccc(C#Cc2ccc(-c3nc(-c4c(F)cccc4Cl)nn3C)s2)cc1` [Compound 66], the “CA: activity at 50 ppm … (% Control rating)” value in experiment [1] (setting [5]) is listed as “B (80-89)”. In experiment [2], the “WF: activity … (% Control rating)” value is reported as “F (less than 50)”. The “GLH: activity at 10 ppm … (% Control rating)” value in experiment [4] (setting [6]) is “F (less than 50)”.

Turning to `Cn1nc(-c2c(F)cccc2Cl)nc1-c1ccc(C#Cc2ccccc2F)s1` [Compound 69], the “CA: activity at 50 ppm … (% Control rating)” value in experiment [1] (setting [5]) was “E (50-59)”. For the same compound, the “WF: activity … (% Control rating)” value in experiment [2] is on record as “F (less than 50)”. Further, the “GLH: activity at 10 ppm … (% Control rating)” value in experiment [4] (setting [6]) is given as “F (less than 50)”.

`Cn1nc(-c2c(F)cccc2Cl)nc1-c1ccc(C#Cc2ccccc2)cc1` [Compound 70]: the “CA: activity at 50 ppm … (% Control rating)” value in experiment [1] (setting [5]) is “C (70-79)”. In experiment [2], the “WF: activity … (% Control rating)” value is recorded as “F (less than 50)”.

Turning to `CCCc1ccc(C#Cc2ccc(-c3nc(-c4c(F)cccc4Cl)nn3C)cc2)cc1` [Compound 71], the “CA: activity at 50 ppm … (% Control rating)” value in experiment [1] (setting [5]) was “A (90-100)”. For the same compound, the “WF: activity … (% Control rating)” value in experiment [2] is “F (less than 50)”. For the same compound, the “BPH: activity at 10 ppm … (% Control rating)” value in experiment [3] (setting [6]) is “F (less than 50)”.

In the case of `CCCc1ccc(C#Cc2sc(-c3nc(-c4c(F)cccc4Cl)n[nH]3)c(Cl)c2Cl)cc1` [Compound 80], in experiment [2], the “WF: activity … (% Control rating)” value was “F (less than 50)”.

As to `COc1ccc(C#Cc2ccc(-c3nc(-c4c(Cl)cncc4Cl)nn3C)cc2)cc1` [Compound 88], in experiment [1] (setting [5]), the “CA: activity at 50 ppm … (% Control rating)” value was “D (60-69)”. Moreover, in experiment [2], the “WF: activity … (% Control rating)” value is reported as “F (less than 50)”. The “GLH: activity at 10 ppm … (% Control rating)” value in experiment [4] (setting [6]) is given as “F (less than 50)”.

Turning to `COc1ccc(C#Cc2cccc(-c3nc(-c4c(Cl)cncc4Cl)nn3C)c2)cc1` [Compound 89], in experiment [1] (setting [5]), the “CA: activity at 50 ppm … (% Control rating)” value was “B (80-89)”. For the same compound, the “WF: activity … (% Control rating)” value in experiment [2] is “F (less than 50)”. Besides, the “GLH: activity at 10 ppm … (% Control rating)” value in experiment [4] (setting [6]) is reported as “F (less than 50)”.

Consider `C#Cc1ccc(-c2nc(-c3c(F)cccc3Cl)nn2C)c(Cl)c1Cl` [Compound 97], for which the pest or weed control at 50 ppm in experiment [1] (setting [5]) lay within 80 to 89%. In experiment [2], the pest or weed control at 200 ppm is below 50%.
